Measured values as given in the NIST ThermoML archive (doi:10.1016/j.jct.2007.05.015).

Assay: xn = mol fraction of the nth substance listed
Conditions: 298.15 K, 101 kPa, Liquid

CN1CCCC1=O [N-methylpyrrolidone] + O
Conditions | mass density [kg/m3] | speed of sound [m/s]
x1 = 0.02533 | 1004.51 | 1573.6
x1 = 0.06006 | 1014.28 | 1646.8
x1 = 0.08026 | 1020.63 | 1684.4
x1 = 0.1008 | 1025.71 | 1724.7
x1 = 0.1191 | 1030.16 | 1731.2
x1 = 0.1399 | 1034.69 | 1745.2
x1 = 0.1596 | 1038.09 | 1747.7
x1 = 0.1779 | 1040.14 | 1749.2
x1 = 0.1964 | 1041.52 | 1751.7
x1 = 0.2203 | 1042.98 | 1750.7
x1 = 0.2399 | 1044.35 | 1750.1
x1 = 0.2602 | 1045.7 | 1745.3
x1 = 0.278 | 1046 | 1741.8
x1 = 0.2987 | 1046.27 | 1735.4
x1 = 0.3296 | 1046.23 | 1725.6
x1 = 0.3794 | 1045.76 | 1707.8
x1 = 0.4497 | 1044.33 | 1687.1
x1 = 0.4986 | 1043.54 | 1670
x1 = 0.5494 | 1041.35 | 1651.2
x1 = 0.5978 | 1039.92 | 1633.6
x1 = 0.649 | 1037.65 | 1621
x1 = 0.6998 | 1035.76 | 1610.2
x1 = 0.7893 | 1032.74 | 1587.7
x1 = 0.8199 | 1031.82 | 1574.4
x1 = 0.8333 | 1031.01 | 1568.3
x1 = 0.8826 | 1030.54 | 1563.8
x1 = 0.8976 | 1029.93 | 1558.4
x1 = 0.9553 | 1028.92 | 1552.2
x1 = 1 | 1028.23 | 1531.5

NC=O [formamide] + O
Conditions | mass density [kg/m3] | speed of sound [m/s]
x1 = 0.01258 | 1001.58 | 1507
x1 = 0.01991 | 1004.13 | 1512.2
x1 = 0.0361 | 1009.48 | 1522.8
x1 = 0.05028 | 1013.93 | 1530.9
x1 = 0.06473 | 1018.25 | 1538.3
x1 = 0.07977 | 1022.53 | 1545.1
x1 = 0.09437 | 1026.49 | 1551
x1 = 0.1125 | 1031.16 | 1557.5
x1 = 0.1347 | 1036.54 | 1564.5
x1 = 0.1596 | 1042.19 | 1571
x1 = 0.1946 | 1049.41 | 1578.3
x1 = 0.2295 | 1056.08 | 1584.1
x1 = 0.2548 | 1060.55 | 1587.5
x1 = 0.2731 | 1063.6 | 1589.5
x1 = 0.2919 | 1066.61 | 1591.4
x1 = 0.3343 | 1072.9 | 1594.7
x1 = 0.3711 | 1077.91 | 1596.7
x1 = 0.4046 | 1082.13 | 1598.1
x1 = 0.4552 | 1088.06 | 1599.4
x1 = 0.4884 | 1091.6 | 1600
x1 = 0.5025 | 1093.05 | 1600.2
x1 = 0.5225 | 1094.97 | 1600.3
x1 = 0.5564 | 1098.27 | 1600.5
x1 = 0.595 | 1101.68 | 1600.5
x1 = 0.6298 | 1104.65 | 1600.5
x1 = 0.6714 | 1107.95 | 1600.2
x1 = 0.702 | 1110.28 | 1600
x1 = 0.723 | 1111.82 | 1599.8
x1 = 0.7544 | 1113.99 | 1599.6
x1 = 0.78 | 1115.76 | 1599.4
x1 = 0.8094 | 1117.67 | 1599.1
x1 = 0.8358 | 1119.42 | 1598.8
x1 = 0.8752 | 1121.79 | 1598.6
x1 = 0.917 | 1124.23 | 1598.2
x1 = 0.9465 | 1125.98 | 1598
x1 = 0.9702 | 1127.29 | 1597.9
x1 = 1 | 1128.78 | 1597.3
